Measurements: paper PMC6017630, “Identification of the NADPH Oxidase 4 Inhibiting Principle of Lycopus europaeus” (Molecules : A Journal of Synthetic Chemistry and Natural …, 2018)

Legend:
NADPH oxidase 4 (Nox4) = biological target: T1, NADPH oxidase 4 (Nox4) (Homo sapiens, UniProt Q9NPH5); test: luminol chemiluminescence of ROS in HEK cells expressing Nox4, normalized to pcDNA cells; mitochondrial ROS scavenging counterscreen; format: cell-based
T1 sequence (Q9NPH5 1-578): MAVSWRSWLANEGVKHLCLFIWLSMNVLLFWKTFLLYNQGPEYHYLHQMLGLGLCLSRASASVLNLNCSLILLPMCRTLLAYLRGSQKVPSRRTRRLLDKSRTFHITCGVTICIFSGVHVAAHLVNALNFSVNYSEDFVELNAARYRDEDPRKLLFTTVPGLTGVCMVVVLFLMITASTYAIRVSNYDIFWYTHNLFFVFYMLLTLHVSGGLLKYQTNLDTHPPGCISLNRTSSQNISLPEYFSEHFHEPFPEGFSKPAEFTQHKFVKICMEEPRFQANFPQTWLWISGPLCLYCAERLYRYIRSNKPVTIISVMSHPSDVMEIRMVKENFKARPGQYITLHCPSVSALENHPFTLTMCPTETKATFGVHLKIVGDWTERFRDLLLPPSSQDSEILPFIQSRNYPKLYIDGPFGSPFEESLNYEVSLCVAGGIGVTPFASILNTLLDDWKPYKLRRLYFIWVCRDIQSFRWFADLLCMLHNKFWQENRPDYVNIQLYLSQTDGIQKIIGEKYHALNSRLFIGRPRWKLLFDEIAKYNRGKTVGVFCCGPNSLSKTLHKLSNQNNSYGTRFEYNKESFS

Nox5 = biological target: T2, Nox5 (Homo sapiens, UniProt Q96PH1); test: chemiluminescence of ROS in ionomycin-stimulated Nox5-transfected HEK cells; format: cell-based
T2 sequence (Q96PH1 1-765): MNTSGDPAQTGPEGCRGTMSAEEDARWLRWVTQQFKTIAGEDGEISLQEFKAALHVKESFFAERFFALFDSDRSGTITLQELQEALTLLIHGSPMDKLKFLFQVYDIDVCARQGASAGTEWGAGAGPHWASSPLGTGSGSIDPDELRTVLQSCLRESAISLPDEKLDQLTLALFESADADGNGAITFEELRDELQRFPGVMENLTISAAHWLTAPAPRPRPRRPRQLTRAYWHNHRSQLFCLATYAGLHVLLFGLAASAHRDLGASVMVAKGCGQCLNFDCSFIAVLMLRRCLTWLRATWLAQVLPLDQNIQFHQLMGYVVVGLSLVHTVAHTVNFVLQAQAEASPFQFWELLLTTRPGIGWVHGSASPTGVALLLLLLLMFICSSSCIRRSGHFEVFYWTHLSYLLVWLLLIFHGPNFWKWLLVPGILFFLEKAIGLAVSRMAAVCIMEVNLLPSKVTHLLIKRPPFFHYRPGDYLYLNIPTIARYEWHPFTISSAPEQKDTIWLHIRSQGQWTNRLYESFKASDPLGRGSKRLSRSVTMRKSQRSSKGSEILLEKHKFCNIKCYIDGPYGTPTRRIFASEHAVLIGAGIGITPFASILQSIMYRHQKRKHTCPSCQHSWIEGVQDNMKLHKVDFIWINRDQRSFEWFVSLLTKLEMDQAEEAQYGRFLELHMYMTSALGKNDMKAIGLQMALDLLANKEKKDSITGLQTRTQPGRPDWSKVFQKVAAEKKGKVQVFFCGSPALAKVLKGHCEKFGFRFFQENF
Description: chemiluminescence of ROS in ionomycin-stimulated Nox5-transfected HEK cells on Nox5 | stably transfected Nox5 overexpressing HEK cells were stimulated with ionomycin. This activity could be quenched completely by DPI

| SMILES | IC50 (NADPH oxidase 4 (Nox4)) | chemiluminescence of ROS in ionomycin-stimulated Nox5-transfected HEK cells (Nox5) |
| --- | --- | --- |
| O=C(/C=C/c1ccc(O)c(O)c1)O[C@H](Cc1ccc(O)c(O)c1)C(=O)O [RA, rosmarinic acid] | 1000 nM |  |
| c1ccc2c(c1)[I+]c1ccccc1-2 [DPI, diphenyleneiodonium] |  | stably transfected Nox5 overexpressing HEK cells were stimulated with ionomycin. This activity could be quenched completely by DPI |
